Test results published in ChEMBL document CHEMBL1932921, “Synthesis and anticonvulsant evaluation of some new 2,3,8-trisubstituted-4(3H)-quinazoline derivatives” (Bioorg Med Chem Lett, 2012).
Active and inactive are the calls of the source. The rule behind the calls is not given here.

Key:
Mus musculus [1] = assay: Anticonvulsant activity in Swiss albino mouse assessed as protection against PTZ-induced clonic seizure at 300 mg/kg, ip administered 30 mins before challenge; assay type: functional; conditions: route intraperitoneal
Mus musculus [2] = assay: Anticonvulsant activity in ip dosed Swiss albino mouse assessed as protection against PTZ-induced seizure compound administered 30 mins before challenge measured after 60 mins; assay type: functional
Mus musculus [3] = assay: Anticonvulsant activity in Swiss albino mouse assessed as protection against maximal electroshock-induced seizure at 300 mg/kg, ip administered 30 mins before challenge; assay type: functional; conditions: route intraperitoneal
[4] = Neurotoxicity in ip dosed Swiss albino mouse measured after 30 mins by chimney test; assay type: toxicity, organism-based; conditions: in vivo
[5] = Neurotoxicity in ip dosed Swiss albino mouse assessed as mortality; assay type: toxicity, organism-based; conditions: in vivo
Mus musculus [6] = assay: Anticonvulsant activity in Swiss albino mouse assessed as protection against maximal electroshock-induced seizure at 0.5 mmol/kg, ip administered 30 mins before challenge; assay type: functional
Mus musculus [7] = assay: Anticonvulsant activity in Swiss albino mouse assessed as protection against strychnine-induced seizure at 0.5 mmol/kg, ip administered 30 mins before challenge; assay type: functional, organism-based
Mus musculus [8] = assay: Anticonvulsant activity in Swiss albino mouse assessed as protection against picrotoxin-induced seizure at 0.5 mmol/kg, ip administered 30 mins before challenge; assay type: functional, organism-based
Mus musculus [9] = assay: Anticonvulsant activity in Swiss albino mouse assessed as protection against PTZ-induced seizure at 0.5 mmol/kg, ip administered 30 mins before challenge; assay type: functional
Mus musculus [10] = species: Mus musculus; assay: Protective index, ratio of TD50 for neurotoxicity to ED50 for anticonvulsant activity in Swiss albino mouse; assay type: functional
Mus musculus [11] = assay: Anticonvulsant activity in Swiss albino mouse assessed as protection against maximal electroshock-induced seizure at 200 mg/kg, ip administered 30 mins before challenge; assay type: functional; conditions: route intraperitoneal
Mus musculus [12] = assay: Anticonvulsant activity in Swiss albino mouse assessed as protection against PTZ-induced clonic seizure at 200 mg/kg, ip administered 30 mins before challenge; assay type: functional; conditions: route intraperitoneal
[13] = Therapeutic index, ratio of LD50 for mortality to ED50 for anticonvulsant activity in Swiss albino mouse; assay type: organism-based; conditions: in vivo, read-out: TI

Row | Structure (SMILES) | inhibition in vivo at 300 mg/kg (Mus musculus [1]) | ED50 (Mus musculus [2]) | inhibition in vivo at 300 mg/kg (Mus musculus [3]) | TD50 at 0.5 h [4] | LD50 [5] | inhibition in vivo at 500 µmol/kg (Mus musculus [6]) | inhibition (Mus musculus [7]) | inhibition (Mus musculus [8]) | inhibition in vivo at 500 µmol/kg (Mus musculus [9]) | PI (Mus musculus [10]) | inhibition in vivo at 200 mg/kg (Mus musculus [11]) | inhibition in vivo at 200 mg/kg (Mus musculus [12]) | therapeutic index [13]
1 | CCCC(CCC)C(=O)[O-].[Na+] [VALPROATE SODIUM] | 100% | 300 mg/kg | 100% | 450 mg/kg | 500 mg/kg | – | – | – | – | – | – | – | –
2 | Cc1ccccc1-n1c(C)nc2c(OCC(=O)NNC(=S)NN)cccc2c1=O | – | – | – | – | – | 33% | inactive | inactive | 66% | – | – | – | –
3 | Cc1ccccc1-n1c(C)nc2c(OCC(=O)NNC(=O)NN)cccc2c1=O | – | – | – | – | – | 0% | inactive | inactive | 50% | – | – | – | –
4 | Cc1ccccc1-n1c(C)nc2ccccc2c1=O [METHAQUALONE] | – | 200 mg/kg | – | 400 mg/kg | 500 mg/kg | – | – | – | – | 2 | 100% | 100% | 2.5
5 | Cc1ccccc1-n1c(C)nc2c(OCC(=O)N/N=C\c3ccccc3F)cccc2c1=O | – | – | – | – | – | 50% | inactive | inactive | 66% | – | – | – | –
6 | COc1ccccc1/C=N\NC(=O)COc1cccc2c(=O)n(-c3ccccc3C)c(C)nc12 | – | – | – | – | – | 0% | inactive | inactive | 33% | – | – | – | –
7 | Cc1ccccc1-n1c(C)nc2c(OCC(=O)N/N=C\c3ccccc3)cccc2c1=O | – | – | – | – | – | 0% | inactive | inactive | 50% | – | – | – | –
8 | Cc1ccccc1-n1c(C)nc2c(OCC(=O)NCCO)cccc2c1=O | – | – | – | – | – | 0% | inactive | inactive | 50% | – | – | – | –
9 | Cc1ccccc1-n1c(C)nc2c(OCC(=O)NNC(N)=O)cccc2c1=O | – | – | – | – | – | 0% | inactive | inactive | 50% | – | – | – | –
10 | Cc1ccccc1-n1c(C)nc2c(OCC(=O)NN)cccc2c1=O | – | 98 mg/kg | – | 267 mg/kg | 1000 mg/kg | 50% | inactive | inactive | 100% | 2.72 | – | – | 10.2
11 | CSC(=S)NNC(=O)COc1cccc2c(=O)n(-c3ccccc3C)c(C)nc12 | – | 150 mg/kg | – | 287 mg/kg | 501 mg/kg | 100% | inactive | inactive | 100% | 1.91 | – | – | 3.34
12 | CCOC(=O)NNC(=O)COc1cccc2c(=O)n(-c3ccccc3C)c(C)nc12 | – | 160 mg/kg | – | 246 mg/kg | 418 mg/kg | 100% | inactive | inactive | 100% | 2.61 | – | – | 1.53
